# pIC50: −log10 of the molar value.
# What was measured:
# [1] = target: hNAMPT protein (Homo sapiens (Human), UniProt P43490); experiment: NAMPT enzyme assay (TR-FRET/HTRF, BodiPY ligand, anti 6His-Tb); format: binding; conditions: for pIC50: NAMPT IC50 range class, read-out: IC50; for inhibition at 1 µM: compound concentration 1 μM, read-out: Percent Inhibition
# In short: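 Compound or DMSO was incubated for 1 h at room temperature, protected from light, with BodiPY ligand and hNAMPT labelled by terbium anti-6His antibody. The 520 nm to 486 nm emission ratio after 320 nm excitation gave inhibition versus vehicle, from which concentration-response curves yielded IC50.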
# [2] = test system: PC3 cells; experiment: PC3 growth inhibition (Cell-titer glo, 72 hours); format: cell-based; conditions: Homo sapiens, PC-3, PC3 cells, 72 hours, Cell-titer glo, read-out: Percent Inhibition (PC3 growth inhibition); for inhibition at 1 µM: compound concentration 1 μM; for inhibition at 1.667 µM: compound concentration 1.667 μM
# In short: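 Compounds in AIM serum-free medium were applied for 72 h at 37 °C, 5% CO2 to PC3 cells plated overnight from RPMI1640 culture. Luminescence after 10 min CellTiter-Glo, normalised to DMSO, gave % viability at 1 μM or 1.667 μM, or GI50/LD50.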
# Sequence of hNAMPT protein (P43490 whole entry): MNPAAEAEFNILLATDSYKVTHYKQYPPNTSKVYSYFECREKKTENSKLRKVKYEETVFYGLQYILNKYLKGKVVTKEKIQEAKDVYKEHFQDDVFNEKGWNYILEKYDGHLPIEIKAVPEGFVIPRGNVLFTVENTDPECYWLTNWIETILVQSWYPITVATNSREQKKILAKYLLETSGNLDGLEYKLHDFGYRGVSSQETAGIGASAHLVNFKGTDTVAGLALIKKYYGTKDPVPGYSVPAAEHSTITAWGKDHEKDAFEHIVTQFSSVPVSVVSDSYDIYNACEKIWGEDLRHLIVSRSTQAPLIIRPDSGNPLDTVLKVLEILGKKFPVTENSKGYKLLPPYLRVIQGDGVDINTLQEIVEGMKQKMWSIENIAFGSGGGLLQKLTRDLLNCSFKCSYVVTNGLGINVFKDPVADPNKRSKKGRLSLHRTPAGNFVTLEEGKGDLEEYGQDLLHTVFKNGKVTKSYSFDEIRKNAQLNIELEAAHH
SMILES,pIC50 [1],inhibition at 1 µM [1] [%],inhibition at 1 µM [2] [%],inhibition at 1.667 µM [2] [%]
"O=C(NCCCn1ccnc1)c1ccc2nc(N3CCC(N4CCOCC4)CC3)c(-c3ccccc3)nc2c1 [Compound I-199, N-[3-(1H-imidazol-1-yl)propyl]-2-[4-(morpholin-4-yl)piperidin-1-yl]-3-phenylquinoxaline-6-carboxamide]",> 7.00,101,0,–
"Cn1cc2c(n1)CN(c1nc3ccc(C(=O)NCCCn4ccnc4)cc3nc1-c1ccccc1)CC2 [Compound I-200, N-[3-(1H-imidazol-1-yl)propyl]-2-(2-methyl-2,4,5,7-tetrahydro-6H-pyrazolo[3,4-c]pyridin-6-yl)-3-phenylquinoxaline-6-carboxamide]",6.30 to 7.00,85,-7,–
"O=C(NCCCn1ccnc1)c1ccc2nc(-c3cccnc3)c(-c3ccccc3)nc2c1 [Compound I-201, N-[3-(1H-imidazol-1-yl)propyl]-3-phenyl-2-(pyridin-3-yl)quinoxaline-6-carboxamide]",6.00 to 6.30,62,-7,–
"O=C(NCCCc1ncc[nH]1)c1ccc2nc(C3=CCC(O)CC3)c(-c3cccs3)nc2c1 (stereo not drawn) [Compound I-202, 2-(4-Hydroxycyclohex-1-en-1-yl)-N-[3-(1H-imidazol-2-yl)propyl]-3-(2-thienyl)quinoxaline-6-carboxamide]",> 7.00,> 99,–,2
"Cn1ccc(-c2nc3ccc(C(=O)NCCCn4ccnc4)cc3nc2-c2ccccc2)n1 [Compound I-203, N-[3-(1H-imidazol-1-yl)propyl]-2-(1-methyl-1H-pyrazol-3-yl)-3-phenylquinoxaline-6-carboxamide]",5.70 to 6.00,37,-8,–
"O=C(NCc1cn2cccnc2n1)c1ccc2nc(N3CCC(N4CCOCC4)CC3)c(-c3ccc(F)cc3)nc2c1 [Compound I-204, 3-(4-fluorophenyl)-N-(imidazo[1,2-a]pyrimidin-2-ylmethyl)-2-[4-(morpholin-4-yl)piperidin-1-yl]quinoxaline-6-carboxamide]",> 7.00,> 99,–,63
"CCOC(=O)CCc1ccc(-c2nc3ccc(C(=O)NCCCn4ccnc4)cc3nc2-c2ccccc2)cc1 [Compound I-205, ethyl 3-[4-(6-{[3-(1H-imidazol-1-yl)propyl]carbamoyl}-3-phenylquinoxalin-2-yl)phenyl]propanoate]",6.30 to 7.00,84,104,–
"O=C(NCCCn1ccnc1)c1ccc2nc(N3CCCC3)c(-c3ccccc3)nc2c1 [Compound I-206, N-[3-(1H-imidazol-1-yl)propyl]-3-phenyl-2-(pyrrolidin-1-yl)quinoxaline-6-carboxamide]",6.30 to 7.00,75,-7,–
"CCN(CC)c1nc2ccc(C(=O)NCCCn3ccnc3)cc2nc1-c1ccccc1 [Compound I-207, 2-(diethylamino)-N-[3-(1H-imidazol-1-yl)propyl]-3-phenylquinoxaline-6-carboxamide]",6.30 to 7.00,69,-7,–
"O=C(NCCCn1ccnc1)c1ccc2nc(-c3ccc4cc[nH]c4c3)c(-c3ccccc3)nc2c1 [Compound I-208, N-[3-(1H-imidazol-1-yl)propyl]-2-(1H-indol-6-yl)-3-phenylquinoxaline-6-carboxamide]",6.00 to 6.30,55,-6,–
"O=C(NCCCn1ccnc1)c1ccc2nc(-c3cccc(Cl)c3)c(-c3ccccc3)nc2c1 [Compound I-209, 2-(3-chlorophenyl)-N-[3-(1H-imidazol-1-yl)propyl]-3-phenylquinoxaline-6-carboxamide]",6.30 to 7.00,74,-7,–
